Values of other authors in US12151031B2, “Topical copper tripeptide composition” (YUVAN RESEARCH, INC., priority 2018, dated 2024).

Settings: in vivo

For “glycyl-histidyl-lysin tripeptide in the form of its Cu Complex [GHK-Cu]”, the Elimination half-life is given as 1.5 to 2 h.
